# Measurements: patent US20060293307A1, “Oxazolidinone derivatives as antimicrobials” (priority 2002, published 2006)
# Read-outs that look alike come from different tables or passages of the source.
# What was measured:
# Assay in all cases: MIC, agar incorporation method
# S. aureus ATCC 25923 = type: cell-based, Staphylococcus aureus
# S. aureus (MRSA) 21299 = type: cell-based, Staphylococcus aureus
# [1] = test system: S. aureus (MRSA 33) Cipro R; type: cell-based, Staphylococcus aureus
# (MRSA) 562 = type: cell-based, Staphylococcus aureus
# S. epidermidis 823 = type: cell-based, Staphylococcus epidermidis
# S. epidermidis 358 = type: cell-based, Staphylococcus epidermidis
# S. haemo ATCC 29970 = type: cell-based
# E. faecalis SP 346 (VRE) = type: cell-based
# E. faecium 6A (VRE) = type: cell-based, Enterococcus faecium
# E. faecium 398(VRE) = type: cell-based, Enterococcus faecium
# Salmonella 205 = type: cell-based; conditions: S. No. 26, Salmonella 205
# Experimental: The compounds of the invention display antibacterial activity when tested by the agar incorporation method. The following minimum inhibitory concentrations (μg/ml) were obtained for representative compounds of the invention which are given below in the following tables.
# Briefly, the compounds were dissolved in DMSO and doubling dilution of the compounds were incorporated into Meer Hilton agar before solidification. Inoculum was prepared by suspending 4 to 5 colonies into 5 ml of normal saline solution and adjusting the turbidity to 0.5 Macfarland turbidity standard tables (1.5×10^8 CFU/ml), after appropriate dilutions, 10^4 CFU/spot was transfered into the surface of dried plate and incubated for 18 hours (24 hours for MRSN studies). The concentration showing no growth of the inoculated culture was recorded as the MIC. Appropriate ATCC standard strains were simultaneously tested and result recorded only when the MIC's against standard antibiotics were within the acceptable range.
# E. durans 581 = type: cell-based
# E. coli 25922 = type: cell-based
# K. oxytoca 49131 = type: cell-based
# P. aeruginosa ATCC 27853 = type: cell-based
# Acinetobacter 9956 = type: cell-based
# S. pneumoniae AB-3 = type: cell-based, Streptococcus pneumoniae
# S. pneumoniae AB4 = type: cell-based, Streptococcus pneumoniae
# S. pneumoniae CS1221 = type: cell-based, Streptococcus pneumoniae
# S. pneumoniae AB 14 = type: cell-based, Streptococcus pneumoniae
# S. pneumoniae 217 = type: cell-based, Streptococcus pneumoniae
# S. pneumoniae AB 16 = type: cell-based, Streptococcus pneumoniae
# S. pneumoniae AB 22 = type: cell-based, Streptococcus pneumoniae
# S. pneumoniae AB 23 = type: cell-based, Streptococcus pneumoniae
# S. pneumoniae AB 30 = type: cell-based, Streptococcus pneumoniae
# S. pneumoniae ATCC 49619 = type: cell-based, Streptococcus pneumoniae
# S. pneumoniae AB 34 = type: cell-based, Streptococcus pneumoniae
# S. pyogenes 20361 = type: cell-based, Streptococcus pyogenes
# S. pneumoniae 1251 = type: cell-based, Streptococcus pneumoniae
# S pneumoniae 1294. = type: cell-based, Streptococcus pneumoniae
# S. pneumoniae 1256 = type: cell-based, Streptococcus pneumoniae
# S. pneumoniae 1275 = type: cell-based, Streptococcus pneumoniae
# [2] = S. No. 5, S. aureus (MRSA) 21299
# [3] = S. No. 7, S. aureus (MRSA 33) Cipro R
# [4] = S. No. 20, E. faecalis SP 346 (VRE)
# [5] = S. No. 28, P. aeruginosa ATCC 27853
# [6] = S. No. 34, S. pneumoniae CS1221
# [7] = S. No. 48, S. pneumoniae ATCC 49619
smiles,measurement,setting,value
"CC(=O)NC[C@H]1CN(c2ccc(N3CCN(c4ccc([N+](=O)[O-])s4)CC3)cc2)C(=O)O1 [Compound No. 6, (S)—N-[[3-[4-[N-1-(5-nitro-2-thienyl)piperazinyl]-phenyl]-2-oxo-5-oxazolidinyl]-methyl]-acetamide]",MIC,"S. aureus ATCC 25923; S. No. 1, organism cell empty",2 µg/mL
same,MIC,S. aureus (MRSA) 21299; [2],1 µg/mL
same,MIC,[1]; [3],1 µg/mL
same,MIC,"(MRSA) 562; S. No. 8, (MRSA) 562",1 µg/mL
same,MIC,"S. epidermidis 823; S. No. 12, S. epidermidis 823",1 µg/mL
same,MIC,"S. epidermidis 358; S. No. 14, S. epidermidis 358",1 µg/mL
same,MIC,"S. haemo ATCC 29970; S. No. 15, S. haemo ATCC 29970",1 µg/mL
same,MIC,E. faecalis SP 346 (VRE); [4],1 µg/mL
same,MIC,"E. faecium 6A (VRE); S. No. 21, E. faecium 6A (VRE)",1 µg/mL
same,MIC,"E. faecium 398(VRE); S. No. 22, E. faecium 398(VRE)",1 µg/mL
same,MIC,Salmonella 205,>16 µg/mL
same,MIC,"E. durans 581; S. No. 24, E. durans 581",1 µg/mL
same,MIC,"E. coli 25922; S. No. 25, E. coli 25922",>16 µg/mL
same,MIC,"K. oxytoca 49131; S. No. 27, K. oxytoca 49131",>16 µg/mL
same,MIC,P. aeruginosa ATCC 27853; [5],>16 µg/mL
same,MIC,"Acinetobacter 9956; S. No. 30, Acinetobacter 9956",>16 µg/mL
same,MIC,"S. pneumoniae AB-3; S. No. 32, S. pneumoniae AB-3",0.25 µg/mL
same,MIC,"S. pneumoniae AB4; S. No. 33, S. pneumoniae AB4",0.25 µg/mL
same,MIC,S. pneumoniae CS1221; [6],0.25 µg/mL
same,MIC,"S. pneumoniae AB 14; S. No. 37, S. pneumoniae AB 14",<0.125 µg/mL
same,MIC,"S. pneumoniae 217; S. No. 38, S. pneumoniae 217",0.25 µg/mL
same,MIC,"S. pneumoniae AB 16; S. No. 39, S. pneumoniae AB 16",0.5 µg/mL
same,MIC,"S. pneumoniae AB 22; S. No. 42, S. pneumoniae AB 22",0.25 µg/mL
same,MIC,"S. pneumoniae AB 23; S. No. 43, S. pneumoniae AB 23",0.5 µg/mL
same,MIC,"S. pneumoniae AB 30; S. No. 47, S. pneumoniae AB 30",0.5 µg/mL
same,MIC,S. pneumoniae ATCC 49619; [7],0.5 µg/mL
same,MIC,"S. pneumoniae AB 34; S. No. 49, S. pneumoniae AB 34",0.5 µg/mL
same,MIC,"S. pyogenes 20361; S. No. 53, S. pyogenes 20361",0.5 µg/mL
same,MIC,"S. pneumoniae 1251; S. No. 54, S. pneumoniae 1251",0.25 µg/mL
same,MIC,"S pneumoniae 1294.; S. No. 55, S pneumoniae 1294.",0.5 µg/mL
same,MIC,"S. pneumoniae 1256; S. No. 56, S. pneumoniae 1256",0.25 µg/mL
same,MIC,"S. pneumoniae 1275; S. No. 57, S. pneumoniae 1275",0.25 µg/mL
"C[C@H](Cl)C(=O)NCC1CN(c2ccc(N3CCN(c4ccc([N+](=O)[O-])s4)CC3)c(F)c2)C(=O)O1 (stereo partly drawn) [Compound No. 7, (S)—N-[[3-[3-Fluoro-4-[N-1-{4-(5-nitro-2-thienyl)piperazinyl}]-phenyl]-2-oxo-5-oxazolidinyl]-methyl]-2-chloro-propionamide]",MIC,"S. aureus ATCC 25923; S. No. 1, organism cell empty",>8 µg/mL
same,MIC,S. aureus (MRSA) 21299; [2],>8 µg/mL
same,MIC,[1]; [3],>8 µg/mL
same,MIC,"(MRSA) 562; S. No. 8, (MRSA) 562",>8 µg/mL
same,MIC,"S. epidermidis 823; S. No. 12, S. epidermidis 823",2 µg/mL
same,MIC,"S. epidermidis 358; S. No. 14, S. epidermidis 358",2 µg/mL
same,MIC,"S. haemo ATCC 29970; S. No. 15, S. haemo ATCC 29970",2 µg/mL
same,MIC,E. faecalis SP 346 (VRE); [4],>8 µg/mL
same,MIC,"E. faecium 6A (VRE); S. No. 21, E. faecium 6A (VRE)",>8 µg/mL
same,MIC,"E. faecium 398(VRE); S. No. 22, E. faecium 398(VRE)",8 µg/mL
same,MIC,Salmonella 205,>8 µg/mL
same,MIC,"E. durans 581; S. No. 24, E. durans 581",8 µg/mL
same,MIC,"E. coli 25922; S. No. 25, E. coli 25922",>8 µg/mL
same,MIC,"K. oxytoca 49131; S. No. 27, K. oxytoca 49131",>8 µg/mL
same,MIC,P. aeruginosa ATCC 27853; [5],>8 µg/mL
same,MIC,"Acinetobacter 9956; S. No. 30, Acinetobacter 9956",>8 µg/mL
same,MIC,"S. pneumoniae AB-3; S. No. 32, S. pneumoniae AB-3",0.5 µg/mL
same,MIC,"S. pneumoniae AB4; S. No. 33, S. pneumoniae AB4",0.5 µg/mL
same,MIC,S. pneumoniae CS1221; [6],0.5 µg/mL
same,MIC,"S. pneumoniae AB 14; S. No. 37, S. pneumoniae AB 14",1 µg/mL
same,MIC,"S. pneumoniae 217; S. No. 38, S. pneumoniae 217",1 µg/mL
same,MIC,"S. pneumoniae AB 16; S. No. 39, S. pneumoniae AB 16",1 µg/mL
same,MIC,"S. pneumoniae AB 22; S. No. 42, S. pneumoniae AB 22",1 µg/mL
same,MIC,"S. pneumoniae AB 23; S. No. 43, S. pneumoniae AB 23",1 µg/mL
same,MIC,"S. pneumoniae AB 30; S. No. 47, S. pneumoniae AB 30",0.5 µg/mL
same,MIC,S. pneumoniae ATCC 49619; [7],0.5 µg/mL
same,MIC,"S. pneumoniae AB 34; S. No. 49, S. pneumoniae AB 34",4 µg/mL
same,MIC,"S. pyogenes 20361; S. No. 53, S. pyogenes 20361",2 µg/mL
same,MIC,"S. pneumoniae 1251; S. No. 54, S. pneumoniae 1251",1 µg/mL
same,MIC,"S pneumoniae 1294.; S. No. 55, S pneumoniae 1294.",2 µg/mL
same,MIC,"S. pneumoniae 1256; S. No. 56, S. pneumoniae 1256",0.25 µg/mL
same,MIC,"S. pneumoniae 1275; S. No. 57, S. pneumoniae 1275",0.25 µg/mL
"O=C(NC[C@H]1CN(c2ccc(N3CCN(c4ccc([N+](=O)[O-])s4)CC3)c(F)c2)C(=O)O1)C(F)F [Compound No. 8, (S)—N-[[3-[3-Fluoro-4-[4-(5-nitro-2-thienyl)-1-piperazinyl]phenyl]-2-oxo-5-oxazolidinyl]methyl]difluoroacetamide]",MIC,"S. aureus ATCC 25923; Staphylococcus aureus, ATCC25923",2 µg/mL
same,MIC,"S. aureus (MRSA) 21299; Staphylococcus aureus, MRSA",2 µg/mL
same,MIC,"[1]; Staphylococcus aureus, MRSA",2 µg/mL
same,MIC,"(MRSA) 562; Staphylococcus aureus, MRSA",2 µg/mL
same,MIC,"S. epidermidis 823; Staphylococcus epidermidis, 823",0.25 µg/mL
same,MIC,"S. epidermidis 358; Staphylococcus epidermidis, 358",0.25 µg/mL
same,MIC,S. haemo ATCC 29970,0.25 µg/mL
same,MIC,"E. faecalis SP 346 (VRE); Enterococcus faecalis, VRE",0.25 µg/mL
same,MIC,"E. faecium 6A (VRE); Enterococcus faecium, VRE",1 µg/mL
same,MIC,"E. faecium 398(VRE); Enterococcus faecium, VRE",0.25 µg/mL
same,MIC,Salmonella 205; read-out: MIC,> 8 µg/mL
same,MIC,"E. durans 581; Enterococcus durans, 581",0.25 µg/mL
same,MIC,"E. coli 25922; Escherichia coli, 25922",> 8 µg/mL
same,MIC,"K. oxytoca 49131; Klebsiella oxytoca, 49131",> 8 µg/mL
same,MIC,"P. aeruginosa ATCC 27853; Pseudomonas aeruginosa, ATCC27853",> 8 µg/mL
same,MIC,"Acinetobacter 9956; Acinetobacter, 9956",8 µg/mL
same,MIC,"S. pneumoniae AB-3; Streptococcus pneumoniae, AB3",0.125 µg/mL
same,MIC,"S. pneumoniae AB4; Streptococcus pneumoniae, AB4",0.125 µg/mL
same,MIC,"S. pneumoniae CS1221; Streptococcus pneumoniae, CS1221",0.125 µg/mL
same,MIC,"S. pneumoniae AB 14; Streptococcus pneumoniae, AB14",0.25 µg/mL
same,MIC,"S. pneumoniae 217; Streptococcus pneumoniae, 217",0.25 µg/mL
same,MIC,"S. pneumoniae AB 16; Streptococcus pneumoniae, AB16",0.25 µg/mL
same,MIC,"S. pneumoniae AB 22; Streptococcus pneumoniae, AB22",0.25 µg/mL
same,MIC,"S. pneumoniae AB 23; Streptococcus pneumoniae, AB23",0.25 µg/mL
same,MIC,"S. pneumoniae AB 30; Streptococcus pneumoniae, AB30",0.25 µg/mL
same,MIC,"S. pneumoniae ATCC 49619; Streptococcus pneumoniae, ATCC49619",0.25 µg/mL
same,MIC,"S. pneumoniae AB 34; Streptococcus pneumoniae, AB34",0.5 µg/mL
same,MIC,"S. pyogenes 20361; Streptococcus pyogenes, 20361",0.25 µg/mL
same,MIC,"S. pneumoniae 1251; Streptococcus pneumoniae, 1251",0.25 µg/mL
same,MIC,"S pneumoniae 1294.; Streptococcus pneumoniae, 1294.",0.25 µg/mL
same,MIC,"S. pneumoniae 1256; Streptococcus pneumoniae, 1256",0.125 µg/mL
same,MIC,"S. pneumoniae 1275; Streptococcus pneumoniae, 1275",0.06 µg/mL
